Experimental data: the NIST ThermoML archive (doi:10.1021/acs.jced.9b00752)

Assay: mn = molality of the nth substance listed, in mol/kg
Settings: 100 kPa, Liquid, Vibrating tube method

N[C@@H](Cc1ccccc1)C(=O)O [L-phenylalanine] + O
Settings | mass density [kg/m3]
273.65 K, m1 = 0.0036 | 1000.05
273.65 K, m1 = 0.011 | 1000.4
273.65 K, m1 = 0.0183 | 1000.75
273.65 K, m1 = 0.033 | 1001.44
273.65 K, m1 = 0.0443 | 1002.02
273.65 K, m1 = 0.0536 | 1002.42
273.65 K, m1 = 0.0623 | 1002.84
273.65 K, m1 = 0.074 | 1003.38
273.65 K, m1 = 0.0855 | 1003.95
273.65 K, m1 = 0.0981 | 1004.56
273.65 K, m1 = 0.1158 | 1005.44
274.15 K, m1 = 0.0036 | 1000.08
274.15 K, m1 = 0.011 | 1000.42
274.15 K, m1 = 0.0183 | 1000.77
274.15 K, m1 = 0.033 | 1001.46
274.15 K, m1 = 0.0443 | 1002.04
274.15 K, m1 = 0.0536 | 1002.44
274.15 K, m1 = 0.0623 | 1002.86
274.15 K, m1 = 0.074 | 1003.4
274.15 K, m1 = 0.0855 | 1003.96
274.15 K, m1 = 0.0981 | 1004.58
274.15 K, m1 = 0.1158 | 1005.46
274.65 K, m1 = 0.0036 | 1000.1
274.65 K, m1 = 0.011 | 1000.45
274.65 K, m1 = 0.0183 | 1000.79
274.65 K, m1 = 0.033 | 1001.48
274.65 K, m1 = 0.0443 | 1002.06
274.65 K, m1 = 0.0536 | 1002.46
274.65 K, m1 = 0.0623 | 1002.87
274.65 K, m1 = 0.074 | 1003.42
274.65 K, m1 = 0.0855 | 1003.98
274.65 K, m1 = 0.0981 | 1004.59
274.65 K, m1 = 0.1158 | 1005.47
275.15 K, m1 = 0.0036 | 1000.12
275.15 K, m1 = 0.011 | 1000.46
275.15 K, m1 = 0.0183 | 1000.81
275.15 K, m1 = 0.033 | 1001.49
275.15 K, m1 = 0.0443 | 1002.07
275.15 K, m1 = 0.0536 | 1002.47
275.15 K, m1 = 0.0623 | 1002.88
275.15 K, m1 = 0.074 | 1003.43
275.15 K, m1 = 0.0855 | 1003.99
275.15 K, m1 = 0.0981 | 1004.6
275.15 K, m1 = 0.1158 | 1005.47
275.65 K, m1 = 0.0036 | 1000.13
275.65 K, m1 = 0.011 | 1000.48
275.65 K, m1 = 0.0183 | 1000.82
275.65 K, m1 = 0.033 | 1001.5
275.65 K, m1 = 0.0443 | 1002.08
275.65 K, m1 = 0.0536 | 1002.48
275.65 K, m1 = 0.0623 | 1002.89
275.65 K, m1 = 0.074 | 1003.43
275.65 K, m1 = 0.0855 | 1003.99
275.65 K, m1 = 0.0981 | 1004.6
275.65 K, m1 = 0.1158 | 1005.47
276.15 K, m1 = 0.0036 | 1000.14
276.15 K, m1 = 0.011 | 1000.49
276.15 K, m1 = 0.0183 | 1000.83
276.15 K, m1 = 0.033 | 1001.51
276.15 K, m1 = 0.0443 | 1002.09
276.15 K, m1 = 0.0536 | 1002.48
276.15 K, m1 = 0.0623 | 1002.89
276.15 K, m1 = 0.074 | 1003.43
276.15 K, m1 = 0.0855 | 1004
276.15 K, m1 = 0.0981 | 1004.6
276.15 K, m1 = 0.1158 | 1005.47
276.65 K, m1 = 0.0036 | 1000.14
276.65 K, m1 = 0.011 | 1000.49
276.65 K, m1 = 0.0183 | 1000.83
276.65 K, m1 = 0.033 | 1001.51
276.65 K, m1 = 0.0443 | 1002.09
276.65 K, m1 = 0.0536 | 1002.48
276.65 K, m1 = 0.0623 | 1002.89
276.65 K, m1 = 0.074 | 1003.43
276.65 K, m1 = 0.0855 | 1003.99
276.65 K, m1 = 0.0981 | 1004.59
276.65 K, m1 = 0.1158 | 1005.46
277.15 K, m1 = 0.0036 | 1000.14
277.15 K, m1 = 0.011 | 1000.49
277.15 K, m1 = 0.0183 | 1000.83
277.15 K, m1 = 0.033 | 1001.51
277.15 K, m1 = 0.0443 | 1002.09
277.15 K, m1 = 0.0536 | 1002.47
277.15 K, m1 = 0.0623 | 1002.89
277.15 K, m1 = 0.074 | 1003.43
277.15 K, m1 = 0.0855 | 1003.98
277.15 K, m1 = 0.0981 | 1004.59
277.15 K, m1 = 0.1158 | 1005.45
277.65 K, m1 = 0.0036 | 1000.14
277.65 K, m1 = 0.011 | 1000.49
277.65 K, m1 = 0.0183 | 1000.83
277.65 K, m1 = 0.033 | 1001.5
277.65 K, m1 = 0.0443 | 1002.08
277.65 K, m1 = 0.0536 | 1002.47
277.65 K, m1 = 0.0623 | 1002.88
277.65 K, m1 = 0.074 | 1003.42
277.65 K, m1 = 0.0855 | 1003.97
277.65 K, m1 = 0.0981 | 1004.57
277.65 K, m1 = 0.1158 | 1005.44
278.15 K, m1 = 0.0036 | 1000.13
278.15 K, m1 = 0.011 | 1000.48
278.15 K, m1 = 0.0183 | 1000.82
278.15 K, m1 = 0.033 | 1001.49
278.15 K, m1 = 0.0443 | 1002.07
278.15 K, m1 = 0.0536 | 1002.46
278.15 K, m1 = 0.0623 | 1002.87
278.15 K, m1 = 0.074 | 1003.41
278.15 K, m1 = 0.0855 | 1003.96
278.15 K, m1 = 0.0981 | 1004.56
278.15 K, m1 = 0.1158 | 1005.42
278.65 K, m1 = 0.0036 | 1000.12
278.65 K, m1 = 0.011 | 1000.47
278.65 K, m1 = 0.0183 | 1000.81
278.65 K, m1 = 0.033 | 1001.48
278.65 K, m1 = 0.0443 | 1002.05
278.65 K, m1 = 0.0536 | 1002.44
278.65 K, m1 = 0.0623 | 1002.85
278.65 K, m1 = 0.074 | 1003.39
278.65 K, m1 = 0.0855 | 1003.94
278.65 K, m1 = 0.0981 | 1004.54
278.65 K, m1 = 0.1158 | 1005.4
279.15 K, m1 = 0.0036 | 1000.11
279.15 K, m1 = 0.011 | 1000.45
279.15 K, m1 = 0.0183 | 1000.79
279.15 K, m1 = 0.033 | 1001.47
279.15 K, m1 = 0.0443 | 1002.04
279.15 K, m1 = 0.0536 | 1002.42
279.15 K, m1 = 0.0623 | 1002.83
279.15 K, m1 = 0.074 | 1003.37
279.15 K, m1 = 0.0855 | 1003.92
279.15 K, m1 = 0.0981 | 1004.51
279.15 K, m1 = 0.1158 | 1005.38
279.65 K, m1 = 0.0036 | 1000.09
279.65 K, m1 = 0.011 | 1000.43
279.65 K, m1 = 0.0183 | 1000.77
279.65 K, m1 = 0.033 | 1001.45
279.65 K, m1 = 0.0443 | 1002.02
279.65 K, m1 = 0.0536 | 1002.4
279.65 K, m1 = 0.0623 | 1002.81
279.65 K, m1 = 0.074 | 1003.34
279.65 K, m1 = 0.0855 | 1003.89
279.65 K, m1 = 0.0981 | 1004.49
279.65 K, m1 = 0.1158 | 1005.35
280.15 K, m1 = 0.0036 | 1000.07
280.15 K, m1 = 0.011 | 1000.41
280.15 K, m1 = 0.0183 | 1000.75
280.15 K, m1 = 0.033 | 1001.42
280.15 K, m1 = 0.0443 | 1001.99
280.15 K, m1 = 0.0536 | 1002.37
280.15 K, m1 = 0.0623 | 1002.78
280.15 K, m1 = 0.074 | 1003.32
280.15 K, m1 = 0.0855 | 1003.87
280.15 K, m1 = 0.0981 | 1004.46
280.15 K, m1 = 0.1158 | 1005.32
280.65 K, m1 = 0.0036 | 1000.04
280.65 K, m1 = 0.011 | 1000.39
280.65 K, m1 = 0.0183 | 1000.73
280.65 K, m1 = 0.033 | 1001.39
280.65 K, m1 = 0.0443 | 1001.96
280.65 K, m1 = 0.0536 | 1002.35
280.65 K, m1 = 0.0623 | 1002.75
280.65 K, m1 = 0.074 | 1003.28
280.65 K, m1 = 0.0855 | 1003.83
280.65 K, m1 = 0.0981 | 1004.43
280.65 K, m1 = 0.1158 | 1005.28
281.15 K, m1 = 0.0036 | 1000.02
281.15 K, m1 = 0.011 | 1000.36
281.15 K, m1 = 0.0183 | 1000.7
281.15 K, m1 = 0.033 | 1001.36
281.15 K, m1 = 0.0443 | 1001.93
281.15 K, m1 = 0.0536 | 1002.31
281.15 K, m1 = 0.0623 | 1002.72
281.15 K, m1 = 0.074 | 1003.25
281.15 K, m1 = 0.0855 | 1003.8
281.15 K, m1 = 0.0981 | 1004.39
281.15 K, m1 = 0.1158 | 1005.24
281.65 K, m1 = 0.0036 | 999.986
281.65 K, m1 = 0.011 | 1000.33
281.65 K, m1 = 0.0183 | 1000.66
281.65 K, m1 = 0.033 | 1001.33
281.65 K, m1 = 0.0443 | 1001.9
281.65 K, m1 = 0.0536 | 1002.28
281.65 K, m1 = 0.0623 | 1002.68
281.65 K, m1 = 0.074 | 1003.21
281.65 K, m1 = 0.0855 | 1003.76
281.65 K, m1 = 0.0981 | 1004.35
281.65 K, m1 = 0.1158 | 1005.2
282.15 K, m1 = 0.0036 | 999.952
282.15 K, m1 = 0.011 | 1000.29
282.15 K, m1 = 0.0183 | 1000.63
282.15 K, m1 = 0.033 | 1001.29
282.15 K, m1 = 0.0443 | 1001.86
282.15 K, m1 = 0.0536 | 1002.24
282.15 K, m1 = 0.0623 | 1002.64
282.15 K, m1 = 0.074 | 1003.17
282.15 K, m1 = 0.0855 | 1003.72
282.15 K, m1 = 0.0981 | 1004.31
282.15 K, m1 = 0.1158 | 1005.16
282.65 K, m1 = 0.0036 | 999.913
282.65 K, m1 = 0.011 | 1000.25
282.65 K, m1 = 0.0183 | 1000.59
282.65 K, m1 = 0.033 | 1001.25
282.65 K, m1 = 0.0443 | 1001.82
282.65 K, m1 = 0.0536 | 1002.19
282.65 K, m1 = 0.0623 | 1002.6
282.65 K, m1 = 0.074 | 1003.13
282.65 K, m1 = 0.0855 | 1003.67
282.65 K, m1 = 0.0981 | 1004.26
282.65 K, m1 = 0.1158 | 1005.11
283.15 K, m1 = 0.0036 | 999.87
283.15 K, m1 = 0.011 | 1000.21
283.15 K, m1 = 0.0183 | 1000.54
283.15 K, m1 = 0.033 | 1001.21
283.15 K, m1 = 0.0443 | 1001.77
283.15 K, m1 = 0.0536 | 1002.15
283.15 K, m1 = 0.0623 | 1002.55
283.15 K, m1 = 0.074 | 1003.08
283.15 K, m1 = 0.0855 | 1003.63
283.15 K, m1 = 0.0981 | 1004.21
283.15 K, m1 = 0.1158 | 1005.06
